{"source": "patent EP4620959A1", "about": "“CYCLIC COMPOUNDS USED AS MULTI-TARGET KINASE INHIBITORS AND PREPARATION METHOD THEREFOR” (Shanghai Institute of Organic Chemistry, Chinese Academy of …, priority 2022, dated 2024)", "data": [{"target": "LRRK2 wt (Homo sapiens, UniProt Q5S007)", "sequence (Q5S007 whole entry)": "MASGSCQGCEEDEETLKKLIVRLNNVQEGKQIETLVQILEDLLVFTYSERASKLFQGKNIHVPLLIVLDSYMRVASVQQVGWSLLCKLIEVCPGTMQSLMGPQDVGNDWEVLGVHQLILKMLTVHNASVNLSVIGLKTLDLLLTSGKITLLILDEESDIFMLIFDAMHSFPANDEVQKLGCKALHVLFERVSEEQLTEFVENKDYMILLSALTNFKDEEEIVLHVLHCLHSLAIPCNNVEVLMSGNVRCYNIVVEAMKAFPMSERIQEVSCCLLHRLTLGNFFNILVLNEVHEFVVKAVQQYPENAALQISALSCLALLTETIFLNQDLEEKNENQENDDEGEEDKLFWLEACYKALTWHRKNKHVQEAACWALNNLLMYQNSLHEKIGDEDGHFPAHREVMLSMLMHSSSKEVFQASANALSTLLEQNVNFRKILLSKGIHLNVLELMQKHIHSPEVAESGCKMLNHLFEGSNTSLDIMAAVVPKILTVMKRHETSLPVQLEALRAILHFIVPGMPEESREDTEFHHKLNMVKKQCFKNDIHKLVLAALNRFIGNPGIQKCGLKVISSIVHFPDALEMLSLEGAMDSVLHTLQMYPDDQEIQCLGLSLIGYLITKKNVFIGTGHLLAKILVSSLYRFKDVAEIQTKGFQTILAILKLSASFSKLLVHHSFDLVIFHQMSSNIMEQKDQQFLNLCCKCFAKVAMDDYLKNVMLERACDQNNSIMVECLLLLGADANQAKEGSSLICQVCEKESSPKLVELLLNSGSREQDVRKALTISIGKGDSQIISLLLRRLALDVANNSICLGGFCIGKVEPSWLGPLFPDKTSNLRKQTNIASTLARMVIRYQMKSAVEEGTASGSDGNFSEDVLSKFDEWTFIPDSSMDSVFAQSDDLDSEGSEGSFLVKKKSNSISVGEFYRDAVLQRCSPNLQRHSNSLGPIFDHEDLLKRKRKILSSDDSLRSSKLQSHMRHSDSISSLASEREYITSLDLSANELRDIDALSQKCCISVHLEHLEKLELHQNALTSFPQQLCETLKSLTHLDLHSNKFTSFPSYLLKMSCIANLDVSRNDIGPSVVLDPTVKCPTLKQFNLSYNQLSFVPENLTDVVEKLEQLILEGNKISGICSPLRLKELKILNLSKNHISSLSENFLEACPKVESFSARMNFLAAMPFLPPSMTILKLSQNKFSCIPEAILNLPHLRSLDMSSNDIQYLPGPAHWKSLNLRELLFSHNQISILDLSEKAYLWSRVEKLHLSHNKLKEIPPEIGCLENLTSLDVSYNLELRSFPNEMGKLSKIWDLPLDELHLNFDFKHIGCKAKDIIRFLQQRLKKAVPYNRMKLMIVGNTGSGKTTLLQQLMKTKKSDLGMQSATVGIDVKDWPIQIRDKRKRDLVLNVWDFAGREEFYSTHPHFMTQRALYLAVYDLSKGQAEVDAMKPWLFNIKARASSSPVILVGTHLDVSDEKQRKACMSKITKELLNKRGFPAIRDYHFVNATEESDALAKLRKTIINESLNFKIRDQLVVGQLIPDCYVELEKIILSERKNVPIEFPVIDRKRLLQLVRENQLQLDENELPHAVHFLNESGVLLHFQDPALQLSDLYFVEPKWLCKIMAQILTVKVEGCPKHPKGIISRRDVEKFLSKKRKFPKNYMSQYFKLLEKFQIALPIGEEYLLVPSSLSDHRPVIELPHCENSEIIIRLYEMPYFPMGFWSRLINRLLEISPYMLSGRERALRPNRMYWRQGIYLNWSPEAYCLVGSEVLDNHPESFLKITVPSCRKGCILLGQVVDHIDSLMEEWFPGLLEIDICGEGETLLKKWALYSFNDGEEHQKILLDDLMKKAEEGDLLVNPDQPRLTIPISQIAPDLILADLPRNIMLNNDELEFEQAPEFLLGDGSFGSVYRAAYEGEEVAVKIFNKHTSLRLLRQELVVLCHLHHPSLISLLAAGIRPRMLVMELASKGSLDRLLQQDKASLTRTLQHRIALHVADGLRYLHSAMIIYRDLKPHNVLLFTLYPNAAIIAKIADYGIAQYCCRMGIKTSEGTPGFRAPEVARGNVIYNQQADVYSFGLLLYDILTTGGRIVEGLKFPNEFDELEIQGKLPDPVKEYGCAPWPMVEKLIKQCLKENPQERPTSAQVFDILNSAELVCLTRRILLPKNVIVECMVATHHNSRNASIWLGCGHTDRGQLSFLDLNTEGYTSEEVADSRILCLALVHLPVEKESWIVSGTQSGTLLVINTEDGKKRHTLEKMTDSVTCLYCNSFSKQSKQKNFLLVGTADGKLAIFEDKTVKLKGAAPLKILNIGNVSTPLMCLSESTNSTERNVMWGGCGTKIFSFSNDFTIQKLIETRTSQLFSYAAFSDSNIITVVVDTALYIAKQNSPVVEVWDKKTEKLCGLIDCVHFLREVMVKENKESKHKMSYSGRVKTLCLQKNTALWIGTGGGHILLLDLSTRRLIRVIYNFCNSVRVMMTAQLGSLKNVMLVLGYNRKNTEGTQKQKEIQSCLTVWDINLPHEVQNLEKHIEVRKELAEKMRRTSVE", "experiment": "Kinase activity inhibition assay (ADP-Glo), LRRK2 wt", "type": "biochemical", "details": "ATP 20 µM, compound at 100 nM", "experimental": "(§1) The kinase activity inhibition assay was performed by ICE Bioscience (Beijing) using ADP-Glo and HTRF methods.\n(§2) Table 1.1-1 ADP-Glo Buffer\n(§3) Table 1.2-1 ADP-Glo Kinase and Substrate Formulation\n(§4) SD is the standard error, and AVE is the average value. Table 2-1 LRRK2 Activity Inhibition Test Results", "units": {"LRRK2 wt inhibition rate at 100 nM": "%@100 nM"}, "values": [{"smiles": "Cc1nn2cc1Nc1ncc(C(F)(F)F)c(n1)NC1CCCC(C1)NC(=O)C2(C)C", "note": "(stereo not shown) [Example T-42, (5^3R,E)-1^3,8,8-Trimethyl-3^5-(trifluoromethyl)-1^1H-2,4,6-triaza-3(2,4)-pyrimidina-1(4,1)-pyrazola-5(1,3)-cyclohexacyclooctan-7-one]", "LRRK2 wt inhibition rate at 100 nM": 42.08}]}, {"target": "LRRK2 wt (Homo sapiens, UniProt Q5S007)", "experiment": "Kinase activity inhibition assay (ADP-Glo), LRRK2 wt", "type": "biochemical", "details": "read-out: LRRK2 wt inhibition rate at 100 nM, ATP 20 µM, compound at 100 nM", "experimental": "as §1, §2, §3, §4", "units": {"inhibition at 0.1 µM": "%"}, "values": [{"smiles": "Cc1nn2cc1Nc1ncc(C(F)(F)F)c(n1)NC(C)(C)CCNC(=O)C2(C)C", "note": "[Example T-45, (E)-3^3,4,4,9,9-Pentamethyl-1^5-(trifluoromethyl)-3^1H-2,6,10-triaza-1(2,4)-pyrimidina-3(4,1)-pyrazolacyclodecan-5-one]", "inhibition at 0.1 µM": -1.97}, {"smiles": "Cc1nn2cc1Nc1ncc3c(Cl)cn(c3n1)CCCCNC(=O)C2(C)C", "note": "[Example T-22, (E)-1^5-Chloro-3^3,4,4-trimethyl-1^7H,3^1H-2,6-diaza-1(2,7)-pyrrolo[2,3-d]pyrimidine-3(4,1)-pyrazolacyclodecan-5-one]", "inhibition at 0.1 µM": 92.5}, {"smiles": "Cc1nn2cc1Nc1ncc3c(C#N)cc(n3n1)CCCNC(=O)C2(C)C", "note": "[Example T-30, (1^1Z,3^4E)-3^3,4,4-Trimethyl-5-oxo-3^1H-2,6-diaza-1(2,7)-pyrrolo[2,1-f][1,2,4]triazine-3(4,1)-pyrazolacyclononan-1^5-carbonitrile]", "inhibition at 0.1 µM": 61.3}, {"smiles": "Cc1nn2cc1Nc1ncc3nn(C)c(c3n1)CCCNC(=O)C2(C)C", "note": "[Example T-20, (1^3E,1^4Z,3^4E)-1^2,3^3,4,4-Tetramethyl-1^2H,3^1H-2,6-diaza-1(5,3)-pyrazolo[4,3-d]pyrimidine-3(4,1)-pyrazinacyclononan-5-one]", "inhibition at 0.1 µM": 0.84}, {"smiles": "Cc1nn2cc1Nc1ncc(C(F)(F)F)c(n1)NC(C)CCNC(=O)C2(C)C", "note": "(stereo not shown) [Example T-46, (E)-3^3,4,4,9-Tetramethyl-1^5-(trifluoromethyl)-3^1H-2,6,10-triaza-1(2,4)-pyrimidina-3(4,1)-pyrazolacyclodecan-5-one]", "inhibition at 0.1 µM": 95.1}, {"smiles": "Cc1nn2cc1Nc1ncc(C(F)(F)F)c(n1)NCC1(CC1)CNC(=O)C2(C)C", "note": "[Example T-44, (E)-3',4',4'-Trimethyl-5'-(trifluoromethyl)spiro[cyclopropane-8'-2,6,10-triaza-1(2,4)-pyrimidina-3(4,1)-pyrazolacyclodecan]-5'-one]", "inhibition at 0.1 µM": 56.8}, {"smiles": "Cc1nn2cc1Nc1ncc(C(F)(F)F)c(n1)NCC(F)(F)COC(=O)C2(C)C", "note": "[Example T-43, (E)-8,8-Difluoro-3^3,4,4-trimethyl-1^5-(trifluoromethyl)-3^1H-6-oxa-2,10-diaza-1(2,4)-pyrimidina-3(4,1)-pyrazolacyclodecan-5-one]", "inhibition at 0.1 µM": 64.6}, {"smiles": "Cc1nn2cc1Nc1ncc(C(F)(F)F)c(n1)NCCCOCCNC(=O)C2(C)C", "note": "[Example T-2, (E)-3^3,4,4-Trimethyl-1^5-(trifluoromethyl)-3^1H-9-oxa-2,6,13-triaza-1(2,4)-pyrimidina-3(4,1)-pyrazolacyclotridecan-5-one]", "inhibition at 0.1 µM": 55}, {"smiles": "Cc1nn2cc1Nc1ncc3c(C(F)(F)F)cc(n3n1)CCCNC(=O)C2(C)C", "note": "[Example T-29, (1^1Z,3^4E)-3^3,4,4-Trimethyl-1^5-(trifluoromethyl)-3^1H-2,6-diaza-1(2,7)-pyrrolo[2,1-f][1,2,4]triazine-3(4,1)-pyrazolacyclononan-5-one]", "inhibition at 0.1 µM": 95.6}, {"smiles": "Cc1nn2cc1Nc1ncc(C(F)(F)F)c(n1)NCCCn1ncc(n1)C2(C)C", "note": "[Example T-17, (3^4E,5^3Z)-3^3,4,4-Trimethyl-1^5-(trifluoromethyl)-3^1H,5^2H-2,9-diaza-1(2,4)-pyrimidina-5(4,2)-triazole-3(4,1)-pyrazolacyclononane]", "inhibition at 0.1 µM": 96.9}, {"smiles": "Cc1nn2cc1Nc1ncc(C(F)(F)F)c(n1)NCCn1ncc(n1)CC2(C)C", "note": "[Example T-36, (3^4E,6^3Z)-3^3,4,4-Trimethyl-1^5-(trifluoromethyl)-3^1H,6^2H-2,9-diaza-1(2,4)-pyrimidina-6(4,2)-triazole-3(4,1)-pyrazolacyclononane]", "inhibition at 0.1 µM": 28.9}, {"smiles": "Cc1nn2cc1Nc1ncc(C(F)(F)F)c(n1)NCCn1cc(nn1)CC2(C)C", "note": "[Example T-35, (3^4E,6^4Z)-3^3,4,4-Trimethyl-1^5-(trifluoromethyl)-3^1H,6^1H-2,9-diaza-1(2,4)-pyrimidina-6(4,1)-triazole-3(4,1)-pyrazolacyclononane]", "inhibition at 0.1 µM": 9.41}, {"smiles": "Cc1nn2cc1Nc1ncc3c(Cl)cc(n3n1)CCCCNC(=O)C2(C)C", "note": "[Example T-26, (1^1Z,3^4E)-1^5-Chloro-3^3,4,4-trimethyl-3^1H-2,6-diaza-1(2,7)-pyrrolo[2,1-f][1,2,4]triazine-3(4,1)-pyrazolacyclodecan-5-one]", "inhibition at 0.1 µM": 98.4}, {"smiles": "Cc1nn2cc1Nc1ncc3c(Cl)cn(c3n1)CCCCN(C)C(=O)C2(C)C", "note": "[Example T-23, (E)-1^5-Chloro-3^3,4,4,6-tetramethyl-1^7H,3^1H-2,6-diaza-1(2,7)-pyrrolo[2,3-d]pyrimidine-3(4,1)-pyrazolacyclodecan-5-one]", "inhibition at 0.1 µM": 19.1}, {"smiles": "Cc1nn2cc1Nc1ncc(C(F)(F)F)c(n1)NCCCOC(=O)C2(C)C", "note": "[Example T-37, (E)-3^3,4,4-Trimethyl-1^5-(trifluoromethyl)-3^1H-6-oxa-2,10-diaza-1(2,4)-pyrimidina-3(4,1)-pyrazolacyclodecan-5-one]", "inhibition at 0.1 µM": 83.4}, {"smiles": "Cc1nn2cc1Nc1ncc(C(F)(F)F)c(n1)N(C)CCCNC(=O)C2(C)C", "note": "[Example T-32, (E)-3^3,4,4,10-Tetramethyl-1^5-(trifluoromethyl)-3^1H-2,6,10-triaza-1(2,4)-pyrimidina-3(4,1)-pyrazolacyclodecan-5-one]", "inhibition at 0.1 µM": 91.6}, {"smiles": "Cc1nn2cc1Nc1ncc3c(n1)c(nn3C)CCCNC(=O)C2(C)C", "note": "[Example T-19, (E)-1^1,3^3,4,4-Tetramethyl-1^1H,3^1H-2,6-diaza-1(5,3)-pyrazolo[4,3-d]pyrimidine-3(4,1)-pyrazinacyclononan-5-one]", "inhibition at 0.1 µM": 11.6}, {"smiles": "Cc1nn2cc1Nc1ncc(C(F)(F)F)c(n1)N(C)CCCN(C)C(=O)C2(C)C", "note": "[Example T-31, (E)-3^3,4,4,6,10-Pentamethyl-1^5-(trifluoromethyl)-3^1H-2,6,10-triaza-1(2,4)-pyrimidina--3(4,1)-pyrazolacyclodecan-5-one]", "inhibition at 0.1 µM": 8.85}, {"smiles": "CC1(C)C(=O)NCCCc2cc(Cl)c3cnc(nn23)Nc2cn1nc2Cl", "note": "[Example T-27, (1^1Z,3^4E)-1^53^3-Dichloro-4,4-dimethyl-3^1H-2,6-diaza-1(2,7)-pyrrolo[2,1-f][1,2,4]triazine-3(4,1)-pyrazolacyclononan-5-one]", "inhibition at 0.1 µM": 88}, {"smiles": "Cc1nn2cc1Nc1ncc(C(F)(F)F)c(n1)N[C@H]1CC[C@H](CC1)NC(=O)C2(C)C", "note": "[Example T-41, (5^1s,5^4s,E)-1^3,8,8-Trimethyl-3^5-(trifluoromethyl)-1^1H-2,4,6-triaza-3(2,4)-pyrimidina-1(4,1)-pyrazola-5(1,4)-cyclohexacyclooctan-7-one]", "inhibition at 0.1 µM": 20.8}, {"smiles": "Cc1nn2cc1Nc1ncc(C(F)(F)F)c(n1)NCCC(C)(C)NC(=O)C2(C)C", "note": "[Example T-39, (E)-3^3,4,4,7,7-Pentamethyl-1^5-(trifluoromethyl)-3^1H-2,6,10-triaza-1(2,4)-pyrimidina-3(4,1)-pyrazolacyclodecan-5-one]", "inhibition at 0.1 µM": 28.9}, {"smiles": "Cc1nn2cc1Nc1ncc3c(n1)c(cn3C)CCCNC(=O)C2(C)C", "note": "[Example T-21, (E)-1^5,3^3,4,4-Tetramethyl-1^5H,3^1H-2,6-diaza-1(2,7)-pyrrolo[3,2-d]pyrimidine-3(4,1)-pyrazolacyclononan-5-one]", "inhibition at 0.1 µM": 60.1}, {"smiles": "Cc1nn2cc1Nc1ncc(C(F)(F)F)c(n1)NCCCN(C)C(=O)C2(C)C", "note": "[Example T-33, (E)-3^3,4,4,6-Tetramethyl-1^5-(trifluoromethyl)-3^1H-2,6,10-triaza-1(2,4)-pyrimidina-3(4,1)-pyrazolacyclodecan-5-one]", "inhibition at 0.1 µM": 2.45}, {"smiles": "Cc1nn2cc1Nc1ncc(C(F)(F)F)c(n1)NCCC(C)NC(=O)C2(C)C", "note": "(stereo not shown) [Example T-38, (E)-3^3,4,4,7-Tetramethyl-1^5-(trifluoromethyl)-3^1H-2,6,10-triaza-1(2,4)-pyrimidina-3(4,1)-pyrazolacyclodecan-5-one]", "inhibition at 0.1 µM": 37.7}, {"smiles": "Cc1nn2cc1Nc1ncc3[nH]cc(c3n1)CCCNC(=O)C2(C)C", "note": "[Example T-18, (E)-3^3,4,4-Trimethyl-1^5H,3^1H-2,6-diaza-1(2,7)-pyrrolo[3,2-d]pyrimidine-3(4,1)-pyrazolacyclononan-5-one]", "inhibition at 0.1 µM": 6.61}, {"smiles": "Cc1nn2cc1Nc1ncc(C(F)(F)F)c(n1)NCCCN(C)CC2(C)C", "note": "[Example T-34, (E)-3^3,4,4,6-Tetramethyl-1^5-(trifluoromethyl)-3^1H-2,6,10-triaza-1(2,4)-pyrimidina-3(4,1)-pyrazolacyclodecane]", "inhibition at 0.1 µM": -12.7}, {"smiles": "Cc1nn2cc1Nc1ncc3ccc(n3n1)CCCNC(=O)C2(C)C", "note": "[Example T-24, (1^1Z,3^4E)-3^3,4,4-Trimethyl-3^1H-2,6-diaza-1(2,7)-pyrrolo[2,1-f][1,2,4]triazine-3(4,1)-pyrazolacyclononan-5-one]", "inhibition at 0.1 µM": 57.3}, {"smiles": "Cc1nn2cc1Nc1ncc3[nH]nc(c3n1)CCCNC(=O)C2(C)C", "note": "[Example T-9, (E)-3^3,4,4-Trimethyl-1^1H,3^1H-2,6-diaza-1(5,3)pyrazolo[4,3-d]pyrimidine-3(4,1)-pyrazolacyclononan-5-one]", "inhibition at 0.1 µM": -0.5}, {"smiles": "Cc1nn2cc1Nc1ncc(C(F)(F)F)c(n1)NCCCn1cc(nn1)C2(C)C", "note": "[Example T-16, (3^4E,5^4Z)-3^3,4,4-Trimethyl-1^5-(trifluoromethyl)-3^1H,5^1H-2,9-diaza-1(2,4)-pyrimidina-5(4,1)-triazole-3(4,1)-pyrazolacyclononane]", "inhibition at 0.1 µM": 86.1}, {"smiles": "Cc1nn2cc1Nc1ncc(C(F)(F)F)c(n1)NC/C=C/CNC(=O)C2(C)C", "note": "[Example T-40, (3^4E,8E)-3^3,4,4-Trimethyl-1^5-(trifluoromethyl)-3^1H-2,6,11-triaza-1(2,4)-pyrimidina-3(4,1)-pyrazolylundecapentaene-5-one]", "inhibition at 0.1 µM": 56.1}]}]}
